The source of these data is PubChem BioAssay AID2060501 (Molecular Pharmacology Branch, DTP, NCI, 2025).
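Further: spheroids exposed to compounds for 7 days before readout; percent of vehicle DMSO control viability with 100% = untreated-like growth.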

One experiment deals with 282377-053-R-J1-PDC complex spheroids, viability. Put plainly: Anticancer human tumor 282377-053-R-J1-PDC patient-derived colon adenocarcinoma cell line growth inhibition [GQUAD]. The settings on record: second compound 0.1 µM; first compound 1 µM; hits give low values. The text has this:
DNA G-quadruplex Stabilizer Agents in Combinations in Complex Spheroids
A high-throughput screen of multi-cell type tumor spheroids was designed to identify active combinations of DNA G-quadruplex stabilizer agents and targeted small molecules. Complex spheroids include a stromal component modeled by human endothelial cells (HUVEC) and fibroblasts modeled by human mesenchymal stem cells (MSCs). The concentration ranges selected for each drug and investigational agent were based upon clinically achievable concentrations if the clinical Cmax of the agent was known.
Compounds. The drugs and investigational agents: pidnarulex (CX-5461; NSC782164), APTO-253 (NSC789042), BRACO-19 (NSC847499), peposertib (NSC802822), ceralasertib (NSC780249), elimusertib (NSC800525), camonsertib (NSC841442), AZD-1390 (NSC803789), olaparib (NSC753686), talazoparib (NSC767125), ART-558 (NSC835418), sotorasib (NSC818433), MRTX-1133 (NSC836407), SN-38 (NSC673596), topotecan (NSC609699), etoposide (NSC141540), doxorubicin (NSC123127), gemcitabine (NSC613327), 5-fluorouracil (NSC19893), paclitaxel (NSC125973), vemurafenib (NSC761431), panobinostat (NSC761190), R-306465 (JNJ-16241199; NSC773264), adavosertib (NSC754352), TP-3654 (NSC805149), carboplatin (NSC241240), KSQ-4279 (NSC840948), and staurosporine (NSC755774) were obtained from the National Cancer Institute (NCI) Developmental Therapeutics Program Chemical Repository (34). The FDA-approved anticancer drug set is available from the NCI Developmental Therapeutics Program. […] The stock solutions were prepared in dimethyl sulfoxide (DMSO, Sigma-Aldrich, St. Louis, MO, cat. D2650) at 800-fold the tested concentration and stored at -70 degrees C prior to their use. All drugs and investigational agents were tested over a range starting from a high concentration at or near the clinical Cmax and decreasing in half-log increments. If the clinical Cmax for an agent had not been determined, the highest concentration tested was 10 microM.
2.3 Cell Culture. All cells were maintained in an incubator at 37 degrees C and 5% CO2 with 95% humidity. The PDC lines were cultured according to standard operating procedures established by the NCI PDMR. All PDCs were thawed and cultured in Matrigel-coated flasks prepared with a working solution of 1X Ham's F-12 nutrient mix, without supplementation (Invitrogen, cat. 11765054), 100 U/mL penicillin-streptomycin (Invitrogen, cat. 15140122), and 2.5% Matrigel (Corning Inc., cat. 354248) for the first three passages. The 857933-349-R-J2-PDC line was cultured in 6C/Colon 1B media, which includes advanced DMEM/F-12 (Thermo Fisher Scientific, cat. 12634028), 10 mM HEPES (Thermo Fisher Scientific, cat. 15630080), 1X GlutaMAX supplement (Thermo Fisher Scientific, cat. 35050061), 0.1 mg/mL primocin (InvivoGen, cat. ant-pm-2), 10% defined fetal bovine serum, heat inactivated (HyClone Laboratories Inc., cat. SH30070.03HI), 50% L-WRN conditioned media (ATCC, cat. CRL-3276), 1.25 mM N-Acetyl-L-cysteine (Sigma-Aldrich, cat. A9165), 10 mM nicotinamide (Sigma-Aldrich, cat. N0636), 1X B-27 supplement (Thermo Fisher Scientific, cat. 17504044), 1X N-2 supplement (Thermo Fisher Scientific, cat. 17502048), 10 microM Y-27632 dihydrochloride (Tocris Bioscience, cat. 1254), and 50 ng/mL human EGF recombinant protein (Thermo Fisher Scientific, cat. PHG0311). The 485176-168-R4-J1-PDC line was cultured in Panc media, which includes all 6C/Colon 1B media components plus 100 ng/mL human FGF-10 (Thermo Fisher Scientific, cat. 100-26), 500 nM SB-431542 (Selleckchem, cat. S1067), and gastrin (Tocris, cat. 3006).
[…]
In general, viability, T/C refers to the ratio of treated to control. With `COc1cccc2c1C(=O)c1c(O)c3c(c(O)c1C2=O)CC(O)(C(=O)CO)CC3OC1CC(N)C(O)C(C)O1` (stereo unspecified) + CN(C)c1ccc(Nc2c3ccc(NC(=O)CCN4CCCC4)cc3nc3cc(NC(=O)CCN4CCCC4)ccc23)cc1, the viability, T/C was 71.6%.

The experiment is the same for the next values; noted with them: second compound 0.1 µM; first compound 3.16 µM; hits give low values.
Regarding `C#Cc1c(F)ccc2cc(O)cc(-c3ncc4c(N5CC6CCC(C5)N6)nc(OCC56CCCN5CC(F)C6)nc4c3F)c12` (stereo unspecified) + CN(C)c1ccc(Nc2c3ccc(NC(=O)CCN4CCCC4)cc3nc3cc(NC(=O)CCN4CCCC4)ccc23)cc1, the viability, T/C is 88.7%.

Regarding `C=CC(=O)N1CCN(c2nc(=O)n(-c3c(C)ccnc3C(C)C)c3nc(-c4c(O)cccc4F)c(F)cc23)C(C)C1` (stereo unspecified) + CN(C)c1ccc(Nc2c3ccc(NC(=O)CCN4CCCC4)cc3nc3cc(NC(=O)CCN4CCCC4)ccc23)cc1, the viability, T/C was 107%.

Consider `COc1cccc2c1C(=O)c1c(O)c3c(c(O)c1C2=O)CC(O)(C(=O)CO)CC3OC1CC(N)C(O)C(C)O1` (stereo unspecified) + CN(C)c1ccc(Nc2c3ccc(NC(=O)CCN4CCCC4)cc3nc3cc(NC(=O)CCN4CCCC4)ccc23)cc1, for which the viability, T/C was 31.1%.

The same experiment, now with this note: second compound 0.1 µM; first compound 10 µM; hits give low values.
For the molecule `C#Cc1c(F)ccc2cc(O)cc(-c3ncc4c(N5CC6CCC(C5)N6)nc(OCC56CCCN5CC(F)C6)nc4c3F)c12` (stereo unspecified) + CN(C)c1ccc(Nc2c3ccc(NC(=O)CCN4CCCC4)cc3nc3cc(NC(=O)CCN4CCCC4)ccc23)cc1, the viability, T/C was 67.6%.

As to `C=CC(=O)N1CCN(c2nc(=O)n(-c3c(C)ccnc3C(C)C)c3nc(-c4c(O)cccc4F)c(F)cc23)C(C)C1` (stereo unspecified) + CN(C)c1ccc(Nc2c3ccc(NC(=O)CCN4CCCC4)cc3nc3cc(NC(=O)CCN4CCCC4)ccc23)cc1, the viability, T/C was 66.6%.

For `COc1cccc2c1C(=O)c1c(O)c3c(c(O)c1C2=O)CC(O)(C(=O)CO)CC3OC1CC(N)C(O)C(C)O1` (stereo unspecified) + CN(C)c1ccc(Nc2c3ccc(NC(=O)CCN4CCCC4)cc3nc3cc(NC(=O)CCN4CCCC4)ccc23)cc1, the viability, T/C was 1.8%.

The experiment is the same for the next values; noted with them: second compound 0.316 µM; first compound 0.0316 µM; hits give low values.
For `C#Cc1c(F)ccc2cc(O)cc(-c3ncc4c(N5CC6CCC(C5)N6)nc(OCC56CCCN5CC(F)C6)nc4c3F)c12` (stereo unspecified) + CN(C)c1ccc(Nc2c3ccc(NC(=O)CCN4CCCC4)cc3nc3cc(NC(=O)CCN4CCCC4)ccc23)cc1, the viability, T/C is 93.7%.

Turning to `C=CC(=O)N1CCN(c2nc(=O)n(-c3c(C)ccnc3C(C)C)c3nc(-c4c(O)cccc4F)c(F)cc23)C(C)C1` (stereo unspecified) + CN(C)c1ccc(Nc2c3ccc(NC(=O)CCN4CCCC4)cc3nc3cc(NC(=O)CCN4CCCC4)ccc23)cc1, the viability, T/C was 115%.

`COc1cccc2c1C(=O)c1c(O)c3c(c(O)c1C2=O)CC(O)(C(=O)CO)CC3OC1CC(N)C(O)C(C)O1` (stereo unspecified) + CN(C)c1ccc(Nc2c3ccc(NC(=O)CCN4CCCC4)cc3nc3cc(NC(=O)CCN4CCCC4)ccc23)cc1: the viability, T/C is 89.4%.

Still in this experiment, the particulars now being: second compound 0.316 µM; first compound 0.1 µM; hits give low values.
Regarding `C#Cc1c(F)ccc2cc(O)cc(-c3ncc4c(N5CC6CCC(C5)N6)nc(OCC56CCCN5CC(F)C6)nc4c3F)c12` (stereo unspecified) + CN(C)c1ccc(Nc2c3ccc(NC(=O)CCN4CCCC4)cc3nc3cc(NC(=O)CCN4CCCC4)ccc23)cc1, the viability, T/C is 87.7%.

On to `C=CC(=O)N1CCN(c2nc(=O)n(-c3c(C)ccnc3C(C)C)c3nc(-c4c(O)cccc4F)c(F)cc23)C(C)C1` (stereo unspecified) + CN(C)c1ccc(Nc2c3ccc(NC(=O)CCN4CCCC4)cc3nc3cc(NC(=O)CCN4CCCC4)ccc23)cc1, for which the viability, T/C was 97.6%.

As for `COc1cccc2c1C(=O)c1c(O)c3c(c(O)c1C2=O)CC(O)(C(=O)CO)CC3OC1CC(N)C(O)C(C)O1` (stereo unspecified) + CN(C)c1ccc(Nc2c3ccc(NC(=O)CCN4CCCC4)cc3nc3cc(NC(=O)CCN4CCCC4)ccc23)cc1, the viability, T/C was 110%.

Staying with this experiment, now noted: second compound 0.316 µM; first compound 0.316 µM; hits give low values.
Consider `C#Cc1c(F)ccc2cc(O)cc(-c3ncc4c(N5CC6CCC(C5)N6)nc(OCC56CCCN5CC(F)C6)nc4c3F)c12` (stereo unspecified) + CN(C)c1ccc(Nc2c3ccc(NC(=O)CCN4CCCC4)cc3nc3cc(NC(=O)CCN4CCCC4)ccc23)cc1, for which the viability, T/C was 87.4%.

For the molecule `C=CC(=O)N1CCN(c2nc(=O)n(-c3c(C)ccnc3C(C)C)c3nc(-c4c(O)cccc4F)c(F)cc23)C(C)C1` (stereo unspecified) + CN(C)c1ccc(Nc2c3ccc(NC(=O)CCN4CCCC4)cc3nc3cc(NC(=O)CCN4CCCC4)ccc23)cc1, the viability, T/C was 103%.

In the case of `COc1cccc2c1C(=O)c1c(O)c3c(c(O)c1C2=O)CC(O)(C(=O)CO)CC3OC1CC(N)C(O)C(C)O1` (stereo unspecified) + CN(C)c1ccc(Nc2c3ccc(NC(=O)CCN4CCCC4)cc3nc3cc(NC(=O)CCN4CCCC4)ccc23)cc1, the viability, T/C was 98.6%.
